Experimental data taken from patent US12195482B1 (Arcus Biosciences, Inc., priority 2022, dated 2025).

Assays:
recombinant human TYRO3 = molecular target: T1, recombinant human TYRO3 (Homo sapiens, UniProt Q06418); assay: Biochemical potency, HTRF KinEASE-TK kinase assay; settings: 1 nM TYRO3, 700 μM ATP
T1 construct: purchased Invitrogen
T1 sequence (Q06418 41-890): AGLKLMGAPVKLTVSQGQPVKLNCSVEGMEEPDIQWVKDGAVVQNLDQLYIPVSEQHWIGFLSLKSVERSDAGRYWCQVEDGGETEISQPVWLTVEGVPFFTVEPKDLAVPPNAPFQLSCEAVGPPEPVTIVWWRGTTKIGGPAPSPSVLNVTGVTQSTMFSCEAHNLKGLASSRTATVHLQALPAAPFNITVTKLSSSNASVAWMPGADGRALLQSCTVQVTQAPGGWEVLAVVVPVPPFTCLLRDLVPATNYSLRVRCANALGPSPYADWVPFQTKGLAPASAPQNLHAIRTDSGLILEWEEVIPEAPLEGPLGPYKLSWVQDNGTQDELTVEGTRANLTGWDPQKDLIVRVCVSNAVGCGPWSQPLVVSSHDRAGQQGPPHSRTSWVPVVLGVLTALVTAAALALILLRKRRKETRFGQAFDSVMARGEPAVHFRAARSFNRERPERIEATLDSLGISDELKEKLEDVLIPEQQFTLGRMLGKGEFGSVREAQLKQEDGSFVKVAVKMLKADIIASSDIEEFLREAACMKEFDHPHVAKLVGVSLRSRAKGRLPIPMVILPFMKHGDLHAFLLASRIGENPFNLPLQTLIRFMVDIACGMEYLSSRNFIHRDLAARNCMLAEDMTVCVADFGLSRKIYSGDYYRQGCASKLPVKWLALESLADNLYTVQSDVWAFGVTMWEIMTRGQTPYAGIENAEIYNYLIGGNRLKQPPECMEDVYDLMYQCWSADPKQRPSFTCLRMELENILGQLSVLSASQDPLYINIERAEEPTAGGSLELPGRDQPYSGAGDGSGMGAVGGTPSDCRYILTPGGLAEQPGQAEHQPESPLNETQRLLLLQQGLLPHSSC
In short: (§1)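 Compounds preincubated 1 h at RT with enzyme in 50 mM HEPES pH 7.4, 10 mM MgCl2, 0.01% BSA, 1 mM DTT; reactions then ran 2 h at RT with 5 nM AXL or 1 nM TYRO3/MER, 800 nM TK substrate-biotin, 700 μM ATP, 1% DMSO. HTRF 665/620 ratio read; percent activity calculated.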

recombinant human MER = molecular target: T2, recombinant human MER (Homo sapiens, UniProt Q12866); assay: Biochemical potency, HTRF KinEASE-TK kinase assay; settings: 1 nM MER, 700 μM ATP
T2 construct: purchased Invitrogen
T2 sequence (Q12866 21-999): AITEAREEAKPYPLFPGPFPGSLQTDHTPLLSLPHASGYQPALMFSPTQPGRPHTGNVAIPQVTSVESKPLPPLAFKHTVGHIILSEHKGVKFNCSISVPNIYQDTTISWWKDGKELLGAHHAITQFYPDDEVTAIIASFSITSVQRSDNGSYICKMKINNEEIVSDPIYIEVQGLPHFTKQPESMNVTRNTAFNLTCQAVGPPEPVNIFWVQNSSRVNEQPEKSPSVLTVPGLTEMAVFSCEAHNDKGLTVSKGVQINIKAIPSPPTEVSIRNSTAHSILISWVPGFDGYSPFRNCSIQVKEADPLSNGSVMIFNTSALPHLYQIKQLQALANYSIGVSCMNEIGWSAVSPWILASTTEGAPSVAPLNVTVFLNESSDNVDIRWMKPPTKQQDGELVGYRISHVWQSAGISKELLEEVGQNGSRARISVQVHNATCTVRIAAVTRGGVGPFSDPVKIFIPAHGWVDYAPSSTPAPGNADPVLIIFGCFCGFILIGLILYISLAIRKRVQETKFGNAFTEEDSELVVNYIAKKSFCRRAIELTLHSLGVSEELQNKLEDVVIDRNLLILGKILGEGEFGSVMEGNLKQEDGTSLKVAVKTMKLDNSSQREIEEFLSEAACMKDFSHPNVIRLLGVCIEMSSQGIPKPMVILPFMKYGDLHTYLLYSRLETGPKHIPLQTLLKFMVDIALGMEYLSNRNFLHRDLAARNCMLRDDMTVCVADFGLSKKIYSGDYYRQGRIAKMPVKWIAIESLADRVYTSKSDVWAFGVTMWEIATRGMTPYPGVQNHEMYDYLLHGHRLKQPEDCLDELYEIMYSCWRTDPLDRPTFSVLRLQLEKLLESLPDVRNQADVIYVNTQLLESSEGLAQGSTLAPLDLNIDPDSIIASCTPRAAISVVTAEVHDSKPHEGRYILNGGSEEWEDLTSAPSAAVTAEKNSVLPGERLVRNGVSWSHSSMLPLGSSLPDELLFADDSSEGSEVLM
In short: as §1

SMILES	IC50 (recombinant human TYRO3)	IC50 (recombinant human MER)
FC(F)(F)Oc1cccnc1-c1ccc(-c2c[nH]c3ncc(-c4ccc5c(c4)CC[C@@H](N4C6COCC4C6)CC5)cc23)cc1 [Example 103, 6-[(7S)-2-(3-{4-[3-(Trifluoromethoxy)pyridin-2-yl]phenyl}-1H-pyrrolo[2,3-b]pyridin-5-yl)-6,7,8,9-tetrahydro-5H-benzo[7]annulen-7-yl]-3-oxa-6-azabicyclo[3.1.1]heptane]	> 1000 nM	> 1000 nM
c1cnc(-c2ccc(-c3n[nH]c4ncc(-c5ccc6c(c5)CC[C@@H](N5C7COCC5C7)CC6)cc34)cc2)c(O[C@@H]2CCOC2)c1 [Example 104, 6-[(7S)-2-[3-(4-{3-[(3R)—Oxolan-3-yloxy]pyridin-2-yl}phenyl)-1H-pyrazolo[3,4-b]pyridin-5-yl]-6,7,8,9-tetrahydro-5H-benzo[7]annulen-7-yl]-3-oxa-6-azabicyclo[3.1.1]heptane]	100 to 1000 nM	100 to 1000 nM
Cn1ccnc1-c1ccc(-c2n[nH]c3ncc(-c4ccc5c(c4)CC[C@@H](N4C6COCC4C6)CC5)cc23)cc1 [Example 111, 6-[(7S)-2-{3-[4-(1-Methyl-1H-imidazol-2-yl)phenyl]-1H-pyrazolo[3,4-b]pyridin-5-yl}-6,7,8,9-tetrahydro-5H-benzo[7]annulen-7-yl]-3-oxa-6-azabicyclo[3.1.1]heptane]	< 100 nM	< 100 nM
CC(C)(O)c1ccccc1-c1ccc(-c2c[nH]c3ncc(-c4ccc5c(c4)CC[C@@H](N4C6COCC4C6)CC5)cc23)cn1 [Example 114, 2-[2-(5-{5-[(7S)-7-{3-Oxa-6-azabicyclo[3.1.1]heptan-6-yl}-6,7,8,9-tetrahydro-5H-benzo[7]annulen-2-yl]-1H-pyrrolo[2,3-b]pyridin-3-yl}pyridin-2-yl)phenyl]propan-2-ol]	100 to 1000 nM	100 to 1000 nM
Cc1cccc(-c2ccc(-c3n[nH]c4ncc(-c5ccc6c(c5)CC[C@@H](N5C7COCC5C7)CC6)cc34)cc2)n1 [Example 116, 6-[(7S)-2-{3-[4-(6-Methylpyridin-2-yl)phenyl]-1H-pyrazolo[3,4-b]pyridin-5-yl}-6,7,8,9-tetrahydro-5H-benzo[7]annulen-7-yl]-3-oxa-6-azabicyclo[3.1.1]heptane]	100 to 1000 nM	100 to 1000 nM
Cc1ccnc(-c2ccc(-c3n[nH]c4ncc(-c5ccc6c(c5)CC[C@@H](N5C7COCC5C7)CC6)cc34)cc2)c1 [Example 117, 6-[(7S)-2-{3-[4-(4-Methylpyridin-2-yl)phenyl]-1H-pyrazolo[3,4-b]pyridin-5-yl}-6,7,8,9-tetrahydro-5H-benzo[7]annulen-7-yl]-3-oxa-6-azabicyclo[3.1.1]heptane]	100 to 1000 nM	> 1000 nM
Cc1cnc(-c2ccc(-c3n[nH]c4ncc(-c5ccc6c(c5)CC[C@@H](N5C7COCC5C7)CC6)cc34)cc2)c(C)c1 [Example 119, 6-[(7S)-2-{3-[4-(3,5-Dimethylpyridin-2-yl)phenyl]-1H-pyrazolo[3,4-b]pyridin-5-yl}-6,7,8,9-tetrahydro-5H-benzo[7]annulen-7-yl]-3-oxa-6-azabicyclo[3.1.1]heptane]	< 100 nM	< 100 nM
O=C1OCCN1c1cccnc1-c1ccc(-c2n[nH]c3ncc(-c4ccc5c(c4)CC[C@@H](N4C6COCC4C6)CC5)cc23)cc1 [Example 121, 3-[2-(4-{5-[(7S)-7-{3-Oxa-6-azabicyclo[3.1.1]heptan-6-yl}-6,7,8,9-tetrahydro-5H-benzo[7]annulen-2-yl]-1H-pyrazolo[3,4-b]pyridin-3-yl}phenyl)pyridin-3-yl]-1,3-oxazolidin-2-one]	< 100 nM	< 100 nM

Continued, values first:

IC50 (recombinant human TYRO3)	IC50 (recombinant human MER)	SMILES
< 100 nM	< 100 nM	Cc1cccnc1-c1ccc(-c2n[nH]c3ncc(-c4ccc5c(c4)CC[C@@](C)(N4CCC[C@H]4C)CC5)cc23)nc1 [Example 105, 3-Methyl-6′-{5-[(7S)-7-methyl-7-[(2R)-2-methylpyrrolidin-1-yl]-6,7,8,9-tetrahydro-5H-benzo[7]annulen-2-yl]-1H-pyrazolo[3,4-b]pyridin-3-yl}-2,3′-bipyridine]
100 to 1000 nM	100 to 1000 nM	Cn1nccc1-c1ccc(-c2n[nH]c3ncc(-c4ccc5c(c4)CC[C@@H](N4C6COCC4C6)CC5)cc23)cc1 [Example 109, 6-[(7S)-2-{3-[4-(1-Methyl-1H-pyrazol-5-yl)phenyl]-1H-pyrazolo[3,4-b]pyridin-5-yl}-6,7,8,9-tetrahydro-5H-benzo[7]annulen-7-yl]-3-oxa-6-azabicyclo[3.1.1]heptane]
< 100 nM	100 to 1000 nM	Cn1ncnc1-c1ccc(-c2n[nH]c3ncc(-c4ccc5c(c4)CC[C@@H](N4C6COCC4C6)CC5)cc23)cc1 [Example 110, 6-[(7S)-2-{3-[4-(1-Methyl-1H-1,2,4-triazol-5-yl)phenyl]-2H-pyrazolo[3,4-b]pyridin-5-yl}-6,7,8,9-tetrahydro-5H-benzo[7]annulen-7-yl]-3-oxa-6-azabicyclo[3.1.1]heptane]
< 100 nM	< 100 nM	C[C@@H]1CCCN1[C@@]1(C)CCc2ccc(-c3cnc4[nH]nc(-c5ccc(-c6ncnn6C)cc5)c4c3)cc2CC1 [Example 112, 1-Methyl-5-(4-{5-[(7S)-7-methyl-7-[(2R)-2-methylpyrrolidin-1-yl]-6,7,8,9-tetrahydro-5H-benzo[7]annulen-2-yl]-1H-pyrazolo[3,4-b]pyridin-3-yl}phenyl)-1H-1,2,4-triazole]
100 to 1000 nM	100 to 1000 nM	CC(C)(O)c1ccccc1-c1ccc(-c2n[nH]c3ncc(-c4ccc5c(c4)CC[C@@H](N4C6COCC4C6)CC5)cc23)cn1 [Example 113, 2-[2-(5-{5-[(7S)-7-{3-Oxa-6-azabicyclo[3.1.1]heptan-6-yl}-6,7,8,9-tetrahydro-5H-benzo[7]annulen-2-yl]-1H-pyrazolo[3,4-b]pyridin-3-yl}pyridin-2-yl)phenyl]propan-2-ol]
> 1000 nM	100 to 1000 nM	Cc1ccc(-c2ccc(-c3n[nH]c4ncc(-c5ccc6c(c5)CC[C@@H](N5C7COCC5C7)CC6)cc34)cc2)nc1 [Example 115, 6-[(7S)-2-{3-[4-(5-Methylpyridin-2-yl)phenyl]-1H-pyrazolo[3,4-b]pyridin-5-yl}-6,7,8,9-tetrahydro-5H-benzo[7]annulen-7-yl]-3-oxa-6-azabicyclo[3.1.1]heptane]
< 100 nM	100 to 1000 nM	Cc1ccnc(-c2ccc(-c3n[nH]c4ncc(-c5ccc6c(c5)CC[C@@H](N5C7COCC5C7)CC6)cc34)cc2)c1C [Example 118, 6-[(7S)-2-{3-[4-(3,4-Dimethylpyridin-2-yl)phenyl]-1H-pyrazolo[3,4-b]pyridin-5-yl}-6,7,8,9-tetrahydro-5H-benzo[7]annulen-7-yl]-3-oxa-6-azabicyclo[3.1.1]heptane]
< 100 nM	100 to 1000 nM	Cc1ccc(C)c(-c2ccc(-c3n[nH]c4ncc(-c5ccc6c(c5)CC[C@@H](N5C7COCC5C7)CC6)cc34)cc2)n1 [Example 120, 6-[(7S)-2-{3-[4-(3,6-Dimethylpyridin-2-yl)phenyl]-1H-pyrazolo[3,4-b]pyridin-5-yl}-6,7,8,9-tetrahydro-5H-benzo[7]annulen-7-yl]-3-oxa-6-azabicyclo[3.1.1]heptane]
